Assay results: patent publication US20020035061A1, “COMPOSITIONS AND METHODS FOR TREATING INFECTIONS USING CATIONIC PEPTIDES ALONE OR IN COMBINATION WITH ANTIBIOTICS” (priority 1996, published 2002)

What was measured:
Assay in all cases: microbe, parasite or virus in culture
Assay type in all cases: cell-based
bacterial isolates = tested on: bacterial isolates
[1] = tested on: inherently resistant microorganisms; details: B. cepacia
[2] = tested on: microorganisms with acquired resistance
[3] = tested on: vancomycin / teicoplanin resistant enterococci; details: for Vancomycin MIC + Peptide: in combination with the labelled peptide; for Peptide MIC + Vancomycin: in combination with vancomycin
S. aureus = S. aureus SA25

KWKSFIKKLTSAAKKVLTTGLPALIS [MBI 29A3]
0.125 µg/mL: Peptide MIC + Ciprofloxacin (bacterial isolates; P. aeruginosa PA24) | Peptide MIC + Tobramycin (bacterial isolates; P. aeruginosa PA028) | Peptide MIC + Tobramycin (bacterial isolates; P. aeruginosa PA029) | Peptide MIC + Ciprofloxacin (bacterial isolates; S. aureus SA25) | Peptide MIC + Gentamicin (bacterial isolates; S. maltophilia SMA019) | Peptide MIC + Gentamicin (bacterial isolates; S. maltophilia SMA021)
0.1 µg/mL: Mupirocin MIC + Peptide (bacterial isolates; P. aeruginosa PA2) | Mupirocin MIC + Peptide (bacterial isolates; P. aeruginosa PA3)
0.38: FIC (bacterial isolates; peptide + Amikacin, B. cepacia BC005) | FIC (bacterial isolates; peptide + Amikacin, S. maltophilia SMA036)
0.63: FIC (bacterial isolates; peptide + Ciprofloxacin, P. aeruginosa PA41) | FIC (bacterial isolates; peptide + Ciprofloxacin, S. aureus SA25)
8 µg/mL: Peptide MIC Alone (bacterial isolates; 1. Amikacin, E. faecium EFM004) | Peptide MIC Alone (bacterial isolates; 1. Amikacin, S. maltophilia SMA063) | Peptide MIC Alone (bacterial isolates; 1. Amikacin, S. maltophilia SMA064) | Amikacin MIC + Peptide (bacterial isolates; B. cepacia BC003) | Peptide MIC + Vancomycin (bacterial isolates; E. faecalis EFS011) | Amikacin MIC + Peptide (bacterial isolates; E. faecium EFM004) | Peptide MIC + Mupirocin (bacterial isolates; P. aeruginosa PA3) | Peptide MIC Alone ([2]; P. aeruginosa PA41, Ciprofloxacin section) | Peptide MIC Alone ([2]; P. aeruginosa PA041, Gentamicin section) | Amikacin MIC + Peptide ([3]; E. faecium EFM004) | Peptide MIC + Vancomycin ([3]; E. faecalis EFS011)
0.35: FIC (bacterial isolates; peptide + Mupirocin, S. marcescens SBSM2)
0.50: FIC (bacterial isolates; peptide + Amikacin, B. cepacia BC003) | FIC (bacterial isolates; peptide + Ciprofloxacin, P. aeruginosa PA24) | FIC (bacterial isolates; peptide + Mupirocin, P. aeruginosa PA2) | FIC (bacterial isolates; peptide + Mupirocin, P. aeruginosa PA3) | FIC (bacterial isolates; peptide + Vancomycin, E. faecalis EFS011)
>128 µg/mL: Peptide MIC Alone (bacterial isolates; 1. Amikacin, B. cepacia BC003) | Peptide MIC Alone (bacterial isolates; 1. Amikacin, B. cepacia BC005) | Peptide MIC Alone ([1]; Amikacin section)
0.56: FIC (bacterial isolates; peptide + Amikacin, E. faecium EFM004) | FIC (bacterial isolates; peptide + Amikacin, S. maltophilia SMA063) | FIC (bacterial isolates; peptide + Amikacin, S. maltophilia SMA064) | FIC (bacterial isolates; peptide + Vancomycin, E. faecalis EFS003)
0.25 µg/mL: Peptide MIC + Tobramycin (bacterial isolates; P. aeruginosa PA022) | Peptide MIC + Tobramycin ([2]; P. aeruginosa PA022)
32 µg/mL: Amikacin MIC + Peptide (bacterial isolates; B. cepacia BC005) | Peptide MIC + Amikacin (bacterial isolates; B. cepacia BC005) | Amikacin MIC + Peptide (bacterial isolates; S. maltophilia SMA036) | Peptide MIC + Amikacin [1] | Peptide MIC Alone ([2]; S. maltophilia SMA027, Tobramycin section)
4 µg/mL: Vancomycin MIC + Peptide (bacterial isolates; E. faecalis EFS005) | Vancomycin MIC + Peptide (bacterial isolates; E. faecalis EFS011) | Peptide MIC + Amikacin (bacterial isolates; E. faecium EFM004) | Vancomycin MIC + Peptide (bacterial isolates; E. faecium EFM006) | Tobramycin MIC + Peptide (bacterial isolates; P. aeruginosa PA022) | Peptide MIC + Ciprofloxacin (bacterial isolates; P. aeruginosa PA41) | Peptide MIC + Tobramycin (bacterial isolates; S. maltophilia SMA029) | Tobramycin MIC + Peptide (bacterial isolates; S. maltophilia SMA029) | Peptide MIC + Tobramycin (bacterial isolates; S. maltophilia SMA030) | Tobramycin MIC + Peptide (bacterial isolates; S. maltophilia SMA030) | Peptide MIC + Amikacin (bacterial isolates; S. maltophilia SMA063) | Peptide MIC + Amikacin (bacterial isolates; S. maltophilia SMA064) | Gentamicin MIC + Peptide ([2]; A. baumannii ABI002) | Peptide MIC Alone ([2]; E. coli EC0006, Tobramycin section) | Tobramycin MIC + Peptide ([2]; P. aeruginosa PA022) | Peptide MIC Alone ([2]; P. aeruginosa PA022, Tobramycin section) | Gentamicin MIC + Peptide ([2]; P. aeruginosa PA041) | Peptide MIC + Gentamicin ([2]; P. aeruginosa PA041) | Peptide MIC + Ciprofloxacin ([2]; P. aeruginosa PA41) | Tobramycin MIC + Peptide ([2]; S. maltophilia SMA027) | Peptide MIC + Tobramycin ([2]; S. maltophilia SMA029) | Tobramycin MIC + Peptide ([2]; S. maltophilia SMA029) | Peptide MIC + Amikacin ([3]; E. faecium EFM004) | Vancomycin MIC + Peptide ([3]; E. faecalis EFS011) | Vancomycin MIC + Peptide ([3]; E. faecium EFM006) | Peptide MIC + Vancomycin ([3]; E. faecalis EFS005)
2 µg/mL: Peptide MIC Alone (bacterial isolates; 4. Gentamicin, S. maltophilia SMA019) | Peptide MIC Alone (bacterial isolates; 4. Gentamicin, S. maltophilia SMA021) | Peptide MIC + Vancomycin (bacterial isolates; E. faecalis EFS003) | Vancomycin MIC + Peptide (bacterial isolates; E. faecalis EFS003) | Peptide MIC + Vancomycin (bacterial isolates; E. faecium EFM006) | Ciprofloxacin MIC + Peptide (bacterial isolates; S. aureus SA25) | Peptide MIC Alone ([2]; A. baumannii ABI002, Gentamicin section) | Peptide MIC + Tobramycin ([2]; E. coli EC0006) | Tobramycin MIC + Peptide ([2]; E. coli EC0006) | Peptide MIC + Amikacin ([3]; E. faecium EFM020) | Peptide MIC + Vancomycin ([3]; E. faecium EFM006)
1 µg/mL: Peptide MIC + Vancomycin (bacterial isolates; E. faecalis EFS005) | Vancomycin MIC + Peptide (bacterial isolates; E. faecalis EFS014) | Peptide MIC + Gentamicin ([2]; A. baumannii ABI002) | Vancomycin MIC + Peptide ([3]; E. faecalis EFS005) | Vancomycin MIC + Peptide ([3]; E. faecalis EFS014) | Ciprofloxacin MIC + Peptide (S. aureus)
100 µg/mL: Mupirocin MIC + Peptide (bacterial isolates; S. marcescens SBSM1) | Mupirocin MIC + Peptide (bacterial isolates; S. marcescens SBSM2)
4: Peptide MIC ([2]; S. aureus, combination with Mupirocin, in µg/mL)
0.5 µg/mL: Peptide MIC + Vancomycin (bacterial isolates; E. faecalis EFS014) | Ciprofloxacin MIC + Peptide (bacterial isolates; P. aeruginosa PA41) | Peptide MIC + Ciprofloxacin (bacterial isolates; S. aureus SA10) | Ciprofloxacin MIC + Peptide ([2]; P. aeruginosa PA41) | Peptide MIC + Vancomycin ([3]; E. faecalis EFS014) | Peptide MIC + Ciprofloxacin (S. aureus)
0.52: FIC (bacterial isolates; peptide + Vancomycin, E. faecalis EFS014) | FIC (bacterial isolates; peptide + Vancomycin, E. faecium EFM006)
0.16: FIC (bacterial isolates; peptide + Mupirocin, S. marcescens SBSM1)
0.75: FIC (bacterial isolates; peptide + Ciprofloxacin, S. aureus SA10) | FIC ([2]; peptide + Tobramycin, E. coli EC0006)
16 µg/mL: Peptide MIC + Mupirocin (bacterial isolates; P. aeruginosa PA2) | Ciprofloxacin MIC + Peptide (bacterial isolates; P. aeruginosa PA24) | Tobramycin MIC + Peptide (bacterial isolates; P. aeruginosa PA028) | Tobramycin MIC + Peptide (bacterial isolates; P. aeruginosa PA029) | Ciprofloxacin MIC + Peptide (bacterial isolates; S. aureus SA10) | Gentamicin MIC + Peptide (bacterial isolates; S. maltophilia SMA019) | Gentamicin MIC + Peptide (bacterial isolates; S. maltophilia SMA021) | Peptide MIC + Amikacin (bacterial isolates; S. maltophilia SMA036) | Amikacin MIC + Peptide (bacterial isolates; S. maltophilia SMA063) | Amikacin MIC + Peptide (bacterial isolates; S. maltophilia SMA064) | Peptide MIC + Mupirocin (bacterial isolates; S. marcescens SBSM1) | Peptide MIC + Tobramycin ([2]; S. maltophilia SMA027) | Peptide MIC Alone ([2]; S. maltophilia SMA029, Tobramycin section) | Amikacin MIC + Peptide ([3]; E. faecium EFM020)
0.28: FIC (bacterial isolates; peptide + Vancomycin, E. faecalis EFS005)
64 µg/mL: Peptide MIC Alone (bacterial isolates; 1. Amikacin, S. maltophilia SMA036) | Peptide MIC + Amikacin (bacterial isolates; B. cepacia BC003) | Peptide MIC + Mupirocin (bacterial isolates; S. marcescens SBSM2)
